According to PubChem BioAssay (NCI):
“And” between values parts separate entries of the source, which are not always exact repeats. Equal entries are not always repeated.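 Assay format: 96-well plates, 48-hour exposure. GI50 is the concentration that inhibits growth by half. TGI: total growth inhibition.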

Columns and labels:
Assay in all cases: NCI anticancer screen, dose series, 48 h
IGROV1 ovarian = test system: IGROV1 ovarian
MOLT-4 leukemia = test system: MOLT-4 leukemia
CAKI-1 renal = test system: CAKI-1 renal
NCI-H226 lung = test system: NCI-H226 lung
SK-OV-3 ovarian = test system: SK-OV-3 ovarian
OVCAR-3 ovarian = test system: OVCAR-3 ovarian
SF-539 CNS = test system: SF-539 CNS
HCT-15 colon = test system: HCT-15 colon
M14 melanoma = test system: M14 melanoma
NCI-H522 lung = test system: NCI-H522 lung

Compound | TGI (IGROV1 ovarian) | TGI (MOLT-4 leukemia) | TGI (CAKI-1 renal) | TGI (NCI-H226 lung) | TGI (SK-OV-3 ovarian) | TGI (OVCAR-3 ovarian) | TGI (SF-539 CNS) | TGI (HCT-15 colon) | TGI (M14 melanoma) | TGI (NCI-H522 lung) | GI50 (IGROV1 ovarian) | GI50 (MOLT-4 leukemia) | GI50 (CAKI-1 renal) | GI50 (NCI-H226 lung) | GI50 (SK-OV-3 ovarian) | GI50 (OVCAR-3 ovarian) | GI50 (SF-539 CNS) | GI50 (HCT-15 colon) | GI50 (M14 melanoma) | GI50 (NCI-H522 lung)
C[C@@H]1CCC([C@@H](C)[C@H]2CC[C@H]3[C@@H]4CC[C@H]5C[C@@H](O)CC[C@]5(C)[C@H]4CC[C@]23C)=NC1 | > 100 µM | > 66 µM | 66.6 µM | > 100 µM | > 100 µM | > 100 µM | > 100 µM | 44.8 µM | > 48.9 µM | 30.7 µM | – | – | – | – | – | – | – | – | – | –
O=[N+]([O-])c1ccc(C2=Nn3c(nnc3-c3ccc(Cl)cc3)SC2)o1 | 17.1 µM | 8.59 µM | 18.4 µM | 37.8 µM | 34.1 µM | 10.6 µM | 20.5 µM | 5.99 µM | 14.3 µM | 2 µM | – | – | – | – | – | – | – | – | – | –
C[C@]12CC[C@@H]3c4cc(O)c(O)cc4CC[C@H]3[C@@H]1CC[C@@H]2O | > 91.3 µM | 77.2 µM | > 88.9 µM | > 100 µM | 61.8 µM | > 31.3 µM | 5.45 µM | 24.8 µM | > 100 µM | 3.83 µM | 11 µM | 3.51 µM | 3.83 µM | 26.8 µM | 4.19 µM | 2.77 µM | 1.64 µM | 0.877 µM | 1.35 µM | 0.987 µM
Cc1cc(O)cc(C)c1/C=C/c1cncc(C(N)=O)c1 | > 25 µM | > 25 µM | > 25 µM | > 25 µM | > 17.6 µM | 3.93 µM | 16.5 µM | > 25 µM | 7.75 µM | 3.84 µM | 2.18 µM | 3.27 µM | 4.24 µM | > 15.6 µM | 3.66 µM | 0.885 µM | 1.87 µM | 1.54 µM | 1.2 µM | 0.779 µM
CCCCCCCCC/C(=N\NC(=O)c1ccncc1)c1ccc(O)c(O)c1O | > 78.1 µM | 25.3 µM | > 100 µM | 14.7 µM | > 100 µM | > 35.7 µM | 8.71 µM | > 100 µM | 1.14 µM | 23.1 µM | 0.184 µM | 0.246 µM | 0.088 µM | 0.271 µM | 0.246 µM | 0.0616 µM | 0.294 µM | 0.0635 µM | 0.175 µM | 0.418 µM
CC1(C)CC[C@]2(C(=O)O)CC[C@]3(C)C(=CC[C@@H]4[C@@]5(C)C[C@H](O)[C@H](O)[C@@](C)(C(=O)O)[C@@H]5CC[C@]43C)[C@@H]2C1 | > 100 µM | > 100 µM | > 100 µM | > 100 µM | > 100 µM | > 100 µM | > 100 µM | > 100 µM | > 100 µM | > 100 µM | – | – | – | – | – | – | – | – | – | –
CCCCNC(=O)C1C(=O)N(CCCC)C(=O)/C1=N\N (configuration not stated) | > 100 µM | > 100 µM | > 100 µM | > 100 µM | > 100 µM | > 100 µM | > 100 µM | > 100 µM | > 100 µM | > 100 µM | – | – | – | – | – | – | – | – | – | –
NC(N)=NC(N)=Nc1cnccn1 | > 100 µM | > 100 µM | > 100 µM | > 100 µM | > 100 µM | > 100 µM | > 100 µM | > 100 µM | > 100 µM | > 100 µM | – | – | – | – | – | – | – | – | – | –
CC1=CCCC2C1(C)CCC(C)C2(C)Cc1cc(O)ccc1O (configuration not stated) | 16.6 µM and 21.6 µM | 21 µM and 8.36 µM | 27.2 µM and 22.5 µM | 27.2 µM and 15.8 µM | 29.9 µM and 39.1 µM | 22.2 µM and 19.3 µM | 26.3 µM and 23.6 µM | 25.8 µM and 23.7 µM | 29.5 µM | 12.7 µM and 8.37 µM | 4.22 µM | – | 14.1 µM | 5.5 µM | – | 9.97 µM | 11.1 µM | 6.04 µM | – | 3.65 µM
Cc1nc(-c2nc(-c3ccc(OC(F)(F)F)cc3)no2)nn1Cc1cccc(N2CCC(S(C)(=O)=O)CC2)c1 | > 100 µM | > 100 µM | 29.8 µM | 41.4 µM | 89.8 µM | > 100 µM | > 100 µM | > 100 µM | > 100 µM | > 100 µM | > 26.5 µM | 3.3 µM | 3.28 µM | 0.931 µM | 16.3 µM | 11.6 µM | > 40.4 µM | > 21.7 µM | 5.66 µM | > 100 µM
COC(=O)C1=COC(C)C2CN3CCc4c([nH]c5cc(OC)c(OC)cc45)C3CC12 (configuration not stated) | > 100 µM | > 100 µM and 79.1 µM | > 100 µM | > 100 µM | > 100 µM | > 100 µM | > 100 µM | > 100 µM | > 100 µM | > 100 µM and 57.2 µM | > 100 µM and 45.7 µM | – | – | – | – | – | – | – | – | > 100 µM and 22 µM
COc1cc2ncnc(Nc3cccc(Cl)c3F)c2cc1OC(=O)N1CCN(C)C[C@H]1C | > 63.9 µM | > 81.3 µM | > 54.1 µM | > 75.6 µM | > 32.1 µM | > 61.8 µM | > 58.9 µM | > 88.8 µM | > 62.8 µM | > 31.3 µM | 0.888 µM | > 46.2 µM | 0.555 µM | > 45.9 µM | 1.12 µM | > 33.6 µM | > 40.4 µM | > 41.4 µM | > 40.9 µM | 0.523 µM
COc1cc2c(cc1Cc1cccc(Cl)c1F)c(=O)c(C(=O)O)cn2[C@@H](CO)C(C)C | 5.61 µM | 18.5 µM | 12.7 µM | 23.6 µM | 26.3 µM | 10.9 µM | 10.7 µM | 14.4 µM | 15 µM | 11.7 µM | 2.42 µM | 4.67 µM | 3.28 µM | 5.68 µM | 4.64 µM | 3.32 µM | 3.39 µM | 3.64 µM | 3.65 µM | 3.51 µM
Cc1ccc2c(c1)c(Sc1ccc(C(=O)NO)cc1)c1n2CN(C)CC1 | 5.46 µM | 6.98 µM | 13.9 µM | 4.86 µM | 3.8 µM | 5.63 µM | 2.92 µM | 13.6 µM | 3.79 µM | 2.61 µM | 2.23 µM | 2.05 µM | 3.87 µM | 1.83 µM | 1.77 µM | 1.93 µM | 1.4 µM | 3.65 µM | 1.72 µM | 1.16 µM
O=c1[nH]c(=O)c2cc3cc(C4CC(O)C(CO)O4)ccc3cc2[nH]1 (configuration not stated) | > 100 µM | > 100 µM | > 100 µM | > 100 µM | > 100 µM | > 100 µM | > 100 µM | > 100 µM | > 100 µM | 87.8 µM | 1.7 µM | > 100 µM | > 100 µM | > 100 µM | > 100 µM | > 100 µM | > 100 µM | > 100 µM | > 100 µM | 17.5 µM
NC1CCCCC1N.O=[Se]([O-])[O-].[Pt+4] (configuration not stated) | > 46 µM | > 100 µM | 45.3 µM | 29.3 µM | > 100 µM | > 100 µM | 20.6 µM | > 45.5 µM | > 52.2 µM | 11.2 µM | 2.11 µM | 0.0775 µM | 1.08 µM | 6.42 µM | 27.8 µM | 17 µM | 1.18 µM | 0.747 µM | 2.51 µM | 0.589 µM
CN1CCC2(CC1)NC(=O)c1c(c3ccc(Cl)c(Cl)c3n1C)C2C#N (configuration not stated) | 7.21 µM | > 28 µM | 21.3 µM | 30.7 µM | 32 µM | 12.3 µM | 17.9 µM | 15.6 µM | 8.5 µM | 44.8 µM | 2.31 µM | 4.52 µM | 4.31 µM | 6.52 µM | 14.9 µM | 5.32 µM | 5.51 µM | 3.98 µM | 2.73 µM | 15.2 µM
COc1ccc2c(O)c(/C=C3\N=Nc4ccccc43)oc2c1C[C@@H]1CCNC[C@H]1F | 26.2 µM | 21.1 µM | 25 µM | 31.9 µM | 31.7 µM | 3.98 µM | 3.06 µM | 28.9 µM | 21.4 µM | 3.94 µM | 10.9 µM | 4.5 µM | 12.3 µM | 13 µM | 17.2 µM | 1.99 µM | 1.6 µM | 14.2 µM | 6.12 µM | 1.67 µM
N#Cc1c(N)n2c(nc1=Nc1ccc(Cl)cc1)sc1cc(Cl)ccc12 | > 100 µM | – | > 100 µM | 9 µM | > 100 µM | > 100 µM | > 100 µM | > 100 µM | > 100 µM | – | > 100 µM | 4.42 µM | 22.4 µM | 6.71 µM and 2.39 µM | 7.14 µM and 5.3 µM | 6.11 µM | 8.7 µM | 5.47 µM | 6.59 µM and 5.9 µM | 3.74 µM
